Data taken from US11000586B2, “Adjuvant composition, vaccine composition containing the same, and method for producing both of them” (TERUMO KABUSHIKI KAISHA, priority 2013, dated 2021).

How the values were obtained:
[1] = tested on: CD80; experiment: Evaluation of stimulus to activate innate immune system: expression of CD80 in cultured mice spleen cells (flow cytometry); details: solution (5 μL) of sample added alone: peptide, OVA 800 μg/mL, DLPC 1000 nmol/mL, deoxycholic acid 1600 nmol/mL; FIG. 8(B)
Protocol: The evaluation of stimulus to activate innate immune system was performed as follows.
A spleen was harvested from C57BL/6N mice. The harvested spleen was injected with 500 μL of collagenase solution, 2 mg/mL (prepared with RPMI medium) followed by incubation at 37° C. for 30 minutes. The spleen was made into cell suspension by treatment with BD Falcon cell strainer. The cells underwent hemolysis with RBC lysis buffer, followed by washing with RPMI medium. The cells were dispersed into RPMI medium, and the number of cells was counted. The cells were used for the subsequent procedure.
The cells were inoculated into a 96-well dish such that 1.0×10^6 cells/100 μL. The cell dispersion was given 100 μL of RPMI medium containing a dispersion of different kind, followed by incubation overnight. These procedures were performed by using serum-free RPMI medium.
The cells were recovered and washed with BD stain buffer. Then, the cells underwent incubation together with Anti-CD11cFITC, 0.25 μg/100 μL (4° C. for 30 minutes), so that the cells were stained. After washing, the cells underwent again incubation with Anti-CD80PE, Anti-CD86PE, or Anti-CD40PE, 0.25 μg/100 μL (4° C. for 30 minutes), so that the cells were stained. After washing at least more than three times, the cells were evaluated by using the flow cytometer (Cytomics FC500, Software: CXP software ver. 2).

[2] = tested on: IFNγ-secreting cells in the spleen; experiment: ELIspot method (IFNγ spots) after immunization of mice; assay type: in vivo, C57BL/6N mice; details: antigen OVA peptide; DLPC, deoxycholic acid (160 nmol), MPL content 0.227; 2×10^6 cells/well; FIG. 2
Protocol: (§1) Administration (100 μL/head) was performed by subcutaneous injection at one position on the back under anesthesia. The dose of the amphipathic substance was 100 nmol/head; the dose of the pH-sensitive compound was 10 to 640 nmol/head; MPL content was 0.0227 to 22.7 nmol/head; and the amount of the antigen was 3.2 to 400 μg/head. For evaluation of cell-mediated immunity, administration was performed once and the assay was performed seven days after administration. For evaluation of humoral immunity, administration was performed twice. The second administration was performed 14 days after the first administration, and assay was performed seven days after the second administration.
The mice were sacrificed on the seventh day after the last administration and had its spleen harvested. […] The number of cells was counted. […]
The ELIspot method was practiced by using the Mouse IFNγ ELISPOT Set. One day before cell inoculation, the 96-well ELIspot plate was allowed to adsorb the detection antibody attached to the kit, so that the plate was made ready for use. […]
Samples used for comparison include a solution of the peptide alone, a dispersion of the pH-sensitive carrier (DLPC-deoxycholic acid) and the peptide, and a solution of incomplete Freund's adjuvant (IFA) and peptide. […] The number of IFNγ-secreting cells in the spleen was counted, and the CTL induction was evaluated.

[3] = tested on: CTL (IFNγ-secreting cells/total CD8 positive cells); experiment: Evaluation of CTL induction rate, ICS method, after immunization of mice; assay type: in vivo, C57BL/6N mice; details: antigen peptide (80 μg); MPL content 0.227 or equivalent; DLPC, deoxycholic acid (160 nmol); subcutaneous once; FIGS. 3 and 4
Protocol: as §1, with “The dose of the amphipathic substance was 100 nmol/head; the dose of the pH-sensitive compound was 10 to 640 nmol/head; MPL content was 0.0227 to 22.7 nmol/head; and the amount of the antigen was 3.2 to 400 μg/head.” left out
The mice were sacrificed on the seventh day after the last administration and had its spleen harvested. The spleen was given RPMI medium (3.0 mL) containing 10% serum and then treated by the BD Falcon cell strainer. Thus there was obtained a suspension of cells. […] The cells were dispersed into RPMI medium containing 10% serum. The number of cells was counted. Thus there was obtained a dispersion of spleen cells.
For restimulation of the antigen, 10% serum-containing RPMI medium (100 μL) containing OVA peptide (40 μg/mL) was added, followed by incubation for three hours. Then, BD GolgiPlug was added such that its concentration was 0.2 μL/100 μL. Cell culture was performed overnight. In the case where the restimulation was not given, a 10% serum-containing RPMI medium not containing OVA peptide was used.
After washing, the cells were stained with Anti-CD8aPE (at 4° C. for 30 minutes), followed by washing again. Then the cells were permeabilized with Cytofix/Cytoperm. After washing, the cells were stained with Anti-IFNγFITC (at 4° C. for 30 minutes). […] CTL induction rate was calculated in terms of the ratio between the IFNγ secreting cells and the total CD8 positive cells.
It is known that MPL activates innate immune system and functions as an adjuvant even when used alone. It is also known that MPL induces cell-mediated immunity. Thus, a comparison was made as to the induction of cell-mediated immunity between MPL used alone and MPL used in combination with a pH-sensitive carrier in the form of the adjuvant composition. Each of the MPL and the adjuvant composition is administered together with an antigen. […] The above-mentioned solution or dispersion was subcutaneously administered once to the back of C57BL/6N mice, and the CTL induction rate was obtained according to the ICS method. The CTL induction rate is expressed in terms of the ratio of the IFNγ-secreting cells to the total CD8 positive cells in a specific area which is hardly affected by dead cells (IFNγ-secreting cells/total CD8 positive cells).

With SIINFEKL [peptide alone] the “fluorescence intensity of CD80PE compared with PBS” value [1] was “remained unchanged from that in the case where PBS was added”, the “number of IFNγ spots compared with untreated sample” value [2] was “equivalent number of spots as the untreated sample” and the CTL induction rate [3] was 0.14%.
